These results are taken from paper PMC3431598, “Phylogenetic and Transcriptomic Analysis of Chemosensory Receptors in a Pair of Divergent Ant Species Reveals Sex-Specific Signatures of Odor Coding” (PLoS Genetics, 2012).

The target of this test is T1, HsOrco (with AgOR10) (Harpegnathos saltator, UniProt E2BJ30).
T1 construct: gene Orco; full-length CDS from worker antennal cDNA; cRNA in Xenopus oocytes with mosquito AgOR10; with Odorant receptor 10 (Anopheles gambiae)
T1 sequence (E2BJ30 1-479): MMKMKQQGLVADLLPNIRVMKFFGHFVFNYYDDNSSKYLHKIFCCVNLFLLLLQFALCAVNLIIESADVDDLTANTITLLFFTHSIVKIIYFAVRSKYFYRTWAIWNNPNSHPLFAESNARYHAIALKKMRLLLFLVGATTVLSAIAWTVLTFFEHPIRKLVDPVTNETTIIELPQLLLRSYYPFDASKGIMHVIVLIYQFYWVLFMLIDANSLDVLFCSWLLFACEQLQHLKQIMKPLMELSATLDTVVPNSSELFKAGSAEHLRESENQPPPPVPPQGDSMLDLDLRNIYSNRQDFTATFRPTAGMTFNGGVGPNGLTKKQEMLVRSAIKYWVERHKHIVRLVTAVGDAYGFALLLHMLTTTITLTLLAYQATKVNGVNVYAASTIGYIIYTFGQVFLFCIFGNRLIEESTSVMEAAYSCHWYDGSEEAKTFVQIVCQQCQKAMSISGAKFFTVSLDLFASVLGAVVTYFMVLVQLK
T1 sequence (B5U0U7 1-375 partner): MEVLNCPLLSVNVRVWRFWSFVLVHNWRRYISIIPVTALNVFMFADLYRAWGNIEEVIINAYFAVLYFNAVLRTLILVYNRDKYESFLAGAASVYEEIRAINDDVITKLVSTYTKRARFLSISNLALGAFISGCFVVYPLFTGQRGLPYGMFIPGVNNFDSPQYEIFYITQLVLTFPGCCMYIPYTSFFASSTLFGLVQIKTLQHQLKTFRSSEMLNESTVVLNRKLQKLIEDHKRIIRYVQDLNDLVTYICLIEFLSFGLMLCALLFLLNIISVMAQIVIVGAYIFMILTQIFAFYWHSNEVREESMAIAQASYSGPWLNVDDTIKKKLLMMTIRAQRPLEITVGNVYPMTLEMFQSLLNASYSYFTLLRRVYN
As to the kind of experiment: two-electrode voltage clamp, Xenopus oocytes. In kind it is cell-based. The settings on record: Orco agonist; AgOR10 co-expressed; -80 mV. A general note: Two-electrode voltage clamp is typically applied to oocytes expressing channels or transporters.

Take `CCc1ccc(NC(=O)CSc2nnc(-c3cccnc3)n2CC)cc1` [VUAA1]: the “two-electrode voltage clamp, Xenopus oocytes” value was “produced responses to VUAA1 (an agonist for Orco)”.
